Test results from ChEMBL document CHEMBL1201862, “PubChem BioAssay data set” (2004).
Calls of active or inactive are those of the source.

Key:
[1] = target: Glucose-6-phosphate 1-dehydrogenase (Homo sapiens, UniProt P11413); assay: human G6PD enzyme inhibitors, dose response, selectivity assay for P. falciparum G6PD inhibitor project, biochemical, fluorescence (AID 504792); assay type: functional
Vero = Vero cell cytotoxicity, cytotoxicity control for flavivirus capping enzyme inhibitors (AID 588742); assay type: functional; details: Chlorocebus sabaeus
Genome polyprotein = Genome polyprotein (dengue virus type 2, UniProt P29990); assay: Dengue-2 NS5 methyltransferase inhibitors, primary screen, biochemical, confirmation dose response (AID 588689); assay type: functional
[2] = target: T1, Long-chain-fatty-acid--AMP ligase FadD28 (Mycobacterium tuberculosis, UniProt P9WQ59); assay: Fluorescence polarization aasay to screen for inhibitors that compete for the binding of FadD28 to a bisubstrate Measured in Biochemical System Using Plate Reader - 2147-01_Inhibitor_Dose_CherryPick_Activity.; assay type: functional, Mycobacterium tuberculosis H37Rv
T1 sequence (P9WQ59 whole entry): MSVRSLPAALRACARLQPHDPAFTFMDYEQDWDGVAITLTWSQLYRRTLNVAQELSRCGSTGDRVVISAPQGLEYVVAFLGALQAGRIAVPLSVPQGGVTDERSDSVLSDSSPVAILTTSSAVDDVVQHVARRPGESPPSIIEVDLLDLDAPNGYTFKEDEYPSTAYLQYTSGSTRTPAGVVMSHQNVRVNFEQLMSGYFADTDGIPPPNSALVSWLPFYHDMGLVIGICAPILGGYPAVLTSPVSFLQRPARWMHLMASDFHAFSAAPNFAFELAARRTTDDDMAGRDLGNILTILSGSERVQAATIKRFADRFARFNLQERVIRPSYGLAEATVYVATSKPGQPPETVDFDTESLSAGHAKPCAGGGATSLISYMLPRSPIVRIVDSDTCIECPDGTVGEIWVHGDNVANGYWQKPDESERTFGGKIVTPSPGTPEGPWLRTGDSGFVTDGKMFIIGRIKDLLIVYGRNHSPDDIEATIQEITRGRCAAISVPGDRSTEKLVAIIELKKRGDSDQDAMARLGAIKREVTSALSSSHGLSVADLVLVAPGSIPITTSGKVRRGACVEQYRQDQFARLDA

Beta-galactosidase = Beta-galactosidase (Escherichia coli, UniProt Q8VNN2); assay: PubChem AID 485352; assay type: functional
[3] = target: T2, Type-1 angiotensin II receptor (Homo sapiens, UniProt P30556); assay: AT1 receptor antagonists, dose response, selectivity assay for APJ receptor antagonist project, cell-based, uHTS hits (AID 463214); assay type: functional;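 note: antagonist potency against angiotensin II stimulated AT1 response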
T2 sequence (P30556 whole entry): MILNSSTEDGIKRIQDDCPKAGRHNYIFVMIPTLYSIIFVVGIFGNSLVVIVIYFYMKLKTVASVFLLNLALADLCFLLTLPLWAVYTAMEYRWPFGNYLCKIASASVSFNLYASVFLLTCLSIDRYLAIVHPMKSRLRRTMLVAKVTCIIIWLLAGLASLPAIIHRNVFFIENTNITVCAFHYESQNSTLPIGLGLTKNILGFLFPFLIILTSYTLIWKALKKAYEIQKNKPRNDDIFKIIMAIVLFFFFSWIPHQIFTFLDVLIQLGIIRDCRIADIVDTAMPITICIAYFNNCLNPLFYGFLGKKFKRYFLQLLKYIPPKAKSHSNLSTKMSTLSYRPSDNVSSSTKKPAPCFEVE

[4] = target: T3, Heat shock factor protein 1 (Mus musculus, UniProt P38532); assay: HSF1 potentiators in luciferase reporter cells, confirmation, cell-based, NIH3T3, luminescence, dose retest (AID 435004); assay type: functional;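 note: stress induced by proteasome inhibitor MG132 added 30 min after compound; luciferase reporter driven by HSF1 response element in NIH3T3 cells; actives raise luminescence as potentiators of the MG132 stress response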
T3 sequence (P38532 whole entry): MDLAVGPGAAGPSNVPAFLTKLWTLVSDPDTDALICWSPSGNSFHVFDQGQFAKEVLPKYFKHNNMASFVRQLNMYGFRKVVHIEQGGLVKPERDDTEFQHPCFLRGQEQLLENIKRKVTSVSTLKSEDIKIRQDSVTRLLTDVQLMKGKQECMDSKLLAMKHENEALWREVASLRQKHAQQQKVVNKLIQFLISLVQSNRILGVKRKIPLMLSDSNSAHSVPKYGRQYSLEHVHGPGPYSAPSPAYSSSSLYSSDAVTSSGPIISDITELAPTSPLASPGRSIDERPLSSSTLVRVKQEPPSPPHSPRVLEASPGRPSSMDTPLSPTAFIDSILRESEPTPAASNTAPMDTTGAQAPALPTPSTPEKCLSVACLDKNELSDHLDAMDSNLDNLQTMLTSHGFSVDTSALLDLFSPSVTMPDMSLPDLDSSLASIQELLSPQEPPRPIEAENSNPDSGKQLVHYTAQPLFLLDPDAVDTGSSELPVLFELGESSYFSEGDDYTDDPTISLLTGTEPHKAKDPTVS

Large T antigen = Large T antigen (Simian virus 40, UniProt P03070); assay type: functional, Betapolyomavirus macacae;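 note: Confirmatory-stage PubChem screen for compounds that inhibit SV40 T antigen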
[5] = target: T4, E3 ubiquitin-protein ligase XIAP (Homo sapiens, UniProt P98170); assay: Counter Screen using XIAP-Bir3 for Chemical Antagonists of Bir1/2 domains of IAP-family anti-apoptotic proteins. [Related pubchem assays (depositor defined):AID1018, AID1449, AID1514, AID1638, AID1749, AID1750, AID488957, AID488963]
[6] = target: T4, E3 ubiquitin-protein ligase XIAP; assay: XIAP antagonists, biochemical, IAP family, fluorescence polarization (AID 1018); assay type: functional
[7] = target: T5, Short transient receptor potential channel 4 (Mus musculus, UniProt Q9QUQ5); assay: mouse TRPC4 channel inhibitors, dose response, cell-based, HEK293 TRPC4/mu-opioid, Fluo-4 calcium (AID 434942); assay type: functional;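 note: potency of inhibitors blocking the TRPC4 calcium response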
T5 sequence (Q9QUQ5 whole entry): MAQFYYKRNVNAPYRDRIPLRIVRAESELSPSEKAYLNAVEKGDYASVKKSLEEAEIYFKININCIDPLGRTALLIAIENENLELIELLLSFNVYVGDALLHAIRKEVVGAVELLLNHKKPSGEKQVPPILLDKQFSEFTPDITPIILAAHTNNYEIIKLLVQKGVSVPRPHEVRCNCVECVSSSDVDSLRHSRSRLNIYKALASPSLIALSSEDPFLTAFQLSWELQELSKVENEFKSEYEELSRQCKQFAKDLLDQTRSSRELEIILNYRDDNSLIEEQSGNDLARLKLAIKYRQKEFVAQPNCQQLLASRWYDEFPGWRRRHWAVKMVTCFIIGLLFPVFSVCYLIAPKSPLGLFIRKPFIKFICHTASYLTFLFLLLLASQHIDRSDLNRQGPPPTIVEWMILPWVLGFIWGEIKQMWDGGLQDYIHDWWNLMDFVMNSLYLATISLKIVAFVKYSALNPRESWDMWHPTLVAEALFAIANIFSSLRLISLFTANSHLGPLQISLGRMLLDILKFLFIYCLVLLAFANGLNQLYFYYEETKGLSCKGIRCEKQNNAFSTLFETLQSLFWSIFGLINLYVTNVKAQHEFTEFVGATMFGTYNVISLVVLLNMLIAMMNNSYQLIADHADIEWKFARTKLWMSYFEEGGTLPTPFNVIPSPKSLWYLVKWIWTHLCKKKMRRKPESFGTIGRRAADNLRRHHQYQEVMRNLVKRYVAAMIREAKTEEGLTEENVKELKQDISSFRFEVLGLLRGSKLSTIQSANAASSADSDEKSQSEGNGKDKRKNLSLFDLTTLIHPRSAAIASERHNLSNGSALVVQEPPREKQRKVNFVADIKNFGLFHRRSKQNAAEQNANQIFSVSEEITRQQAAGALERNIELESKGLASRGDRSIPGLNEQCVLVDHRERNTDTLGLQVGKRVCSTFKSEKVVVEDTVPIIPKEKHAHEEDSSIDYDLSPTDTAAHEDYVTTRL

[8] = target: T6, Corticotropin-releasing factor receptor 2/Corticotropin-releasing factor-binding protein (Homo sapiens, UniProt P24387+Q13324); assay: Dose Response confirmation of uHTS hits for small molecule antagonists of the CRF-binding protein and CRF-R2 receptor complex.; assay type: functional; details: read-out: IC50_Mean
T6 sequence (Q13324 whole entry): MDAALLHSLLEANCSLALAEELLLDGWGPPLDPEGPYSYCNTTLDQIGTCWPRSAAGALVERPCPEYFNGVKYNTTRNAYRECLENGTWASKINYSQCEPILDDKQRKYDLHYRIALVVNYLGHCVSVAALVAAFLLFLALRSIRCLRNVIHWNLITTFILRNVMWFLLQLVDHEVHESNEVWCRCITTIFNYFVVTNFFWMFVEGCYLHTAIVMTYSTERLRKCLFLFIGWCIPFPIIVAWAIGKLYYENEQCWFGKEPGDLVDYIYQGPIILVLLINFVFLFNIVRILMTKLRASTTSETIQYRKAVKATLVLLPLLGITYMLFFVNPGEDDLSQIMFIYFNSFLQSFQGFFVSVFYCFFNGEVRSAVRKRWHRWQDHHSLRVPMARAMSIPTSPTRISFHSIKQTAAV
T6 sequence (P24387 whole entry): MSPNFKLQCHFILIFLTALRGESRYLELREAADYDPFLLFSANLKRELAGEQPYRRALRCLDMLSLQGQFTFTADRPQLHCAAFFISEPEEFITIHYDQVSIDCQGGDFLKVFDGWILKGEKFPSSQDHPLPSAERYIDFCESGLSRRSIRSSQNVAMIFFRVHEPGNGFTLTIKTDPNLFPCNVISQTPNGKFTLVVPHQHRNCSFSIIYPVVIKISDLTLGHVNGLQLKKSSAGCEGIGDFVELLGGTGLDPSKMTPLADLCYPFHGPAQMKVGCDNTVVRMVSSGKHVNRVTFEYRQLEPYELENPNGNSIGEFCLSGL

[9] = target: T6, Corticotropin-releasing factor receptor 2/Corticotropin-releasing factor-binding protein; assay: activators of CRF receptor 2 with binding protein – uHTS hits, confirmation (AID 602473); assay type: functional; details: read-out: EC50_Mean
SUMO-activating enzyme [10] = target: T7, SUMO-activating enzyme (Homo sapiens, UniProt Q9UBT2); assay: SUMOylation inhibitor hit validation, confirmation, SUMOylation inhibitor project, biochemical, AlphaScreen (AID 2018); assay type: functional
SUMO-activating enzyme [11] = target: T7, SUMO-activating enzyme; assay: inhibitors of in vitro SUMOylation cascade, primary screen, biochemical, HTRF, uHTS (AID 2006); assay type: protein-complex assay
[12] = target: T8, Lysosomal acid glucosylceramidase (Homo sapiens, UniProt P04062); assay: Dose response cell-based high throughput screening assay to identify enhancers of beta-glucosidase activity. [Related pubchem assays: 784 ]; assay type: functional
T8 sequence (P04062 whole entry): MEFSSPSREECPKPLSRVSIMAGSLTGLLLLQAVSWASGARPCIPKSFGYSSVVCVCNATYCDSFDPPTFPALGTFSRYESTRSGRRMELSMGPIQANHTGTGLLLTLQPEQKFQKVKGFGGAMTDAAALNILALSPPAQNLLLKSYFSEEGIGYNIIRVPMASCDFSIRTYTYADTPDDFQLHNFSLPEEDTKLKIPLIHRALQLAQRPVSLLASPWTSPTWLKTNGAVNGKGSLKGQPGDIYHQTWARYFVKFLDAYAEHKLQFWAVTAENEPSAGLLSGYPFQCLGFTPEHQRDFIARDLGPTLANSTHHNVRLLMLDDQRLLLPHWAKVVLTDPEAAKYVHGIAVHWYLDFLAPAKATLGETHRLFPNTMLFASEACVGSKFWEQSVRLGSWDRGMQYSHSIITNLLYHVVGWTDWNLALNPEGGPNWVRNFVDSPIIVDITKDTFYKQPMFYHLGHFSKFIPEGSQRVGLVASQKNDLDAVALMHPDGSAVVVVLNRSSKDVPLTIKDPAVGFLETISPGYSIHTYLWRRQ

[13] = target: Beta-2 adrenergic receptor (Homo sapiens, UniProt P07550); assay: beta2AR agonists driving receptor internalization, dose response, cell-based, FAP fluorogen, flow cytometry, cherry pick 1 (AID 588763); assay type: functional
Sequence of Beta-2 adrenergic receptor (P07550 whole entry): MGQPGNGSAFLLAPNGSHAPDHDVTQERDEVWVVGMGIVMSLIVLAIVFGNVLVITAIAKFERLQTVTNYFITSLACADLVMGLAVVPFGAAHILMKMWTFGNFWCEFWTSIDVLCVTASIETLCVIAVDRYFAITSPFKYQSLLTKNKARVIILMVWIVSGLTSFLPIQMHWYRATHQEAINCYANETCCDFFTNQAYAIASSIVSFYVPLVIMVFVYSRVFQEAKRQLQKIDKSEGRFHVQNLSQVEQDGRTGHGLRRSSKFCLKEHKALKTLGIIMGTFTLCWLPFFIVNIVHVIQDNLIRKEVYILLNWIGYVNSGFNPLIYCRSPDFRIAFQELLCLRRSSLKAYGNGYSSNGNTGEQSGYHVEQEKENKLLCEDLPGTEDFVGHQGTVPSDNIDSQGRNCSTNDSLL

Sequence of Beta-galactosidase (Q8VNN2 whole entry): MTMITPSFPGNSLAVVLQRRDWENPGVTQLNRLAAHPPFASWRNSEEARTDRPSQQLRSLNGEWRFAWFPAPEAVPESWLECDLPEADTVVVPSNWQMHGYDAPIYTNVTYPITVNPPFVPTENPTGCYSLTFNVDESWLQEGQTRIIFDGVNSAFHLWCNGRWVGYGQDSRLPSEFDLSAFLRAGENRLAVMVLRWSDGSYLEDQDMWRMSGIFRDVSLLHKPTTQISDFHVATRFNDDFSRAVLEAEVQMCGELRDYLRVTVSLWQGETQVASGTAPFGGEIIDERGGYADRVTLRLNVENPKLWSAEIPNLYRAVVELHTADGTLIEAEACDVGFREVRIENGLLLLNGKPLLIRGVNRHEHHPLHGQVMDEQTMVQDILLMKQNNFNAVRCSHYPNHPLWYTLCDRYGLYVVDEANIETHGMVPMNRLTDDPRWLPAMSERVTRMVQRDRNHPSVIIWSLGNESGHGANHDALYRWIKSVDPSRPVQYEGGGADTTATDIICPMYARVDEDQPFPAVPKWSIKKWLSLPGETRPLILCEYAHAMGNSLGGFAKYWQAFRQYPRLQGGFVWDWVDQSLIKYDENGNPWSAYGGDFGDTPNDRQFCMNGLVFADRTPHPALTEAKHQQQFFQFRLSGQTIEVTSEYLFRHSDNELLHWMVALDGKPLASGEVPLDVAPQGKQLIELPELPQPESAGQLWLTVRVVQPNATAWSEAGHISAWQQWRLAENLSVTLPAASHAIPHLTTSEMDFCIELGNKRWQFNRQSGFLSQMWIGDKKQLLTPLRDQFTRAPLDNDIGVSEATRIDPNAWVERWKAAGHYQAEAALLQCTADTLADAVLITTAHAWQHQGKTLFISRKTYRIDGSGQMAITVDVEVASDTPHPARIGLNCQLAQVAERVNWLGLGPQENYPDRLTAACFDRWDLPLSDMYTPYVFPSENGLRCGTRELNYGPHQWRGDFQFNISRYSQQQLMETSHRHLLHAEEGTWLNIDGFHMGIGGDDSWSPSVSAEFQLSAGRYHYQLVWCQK
T4 sequence (P98170 whole entry): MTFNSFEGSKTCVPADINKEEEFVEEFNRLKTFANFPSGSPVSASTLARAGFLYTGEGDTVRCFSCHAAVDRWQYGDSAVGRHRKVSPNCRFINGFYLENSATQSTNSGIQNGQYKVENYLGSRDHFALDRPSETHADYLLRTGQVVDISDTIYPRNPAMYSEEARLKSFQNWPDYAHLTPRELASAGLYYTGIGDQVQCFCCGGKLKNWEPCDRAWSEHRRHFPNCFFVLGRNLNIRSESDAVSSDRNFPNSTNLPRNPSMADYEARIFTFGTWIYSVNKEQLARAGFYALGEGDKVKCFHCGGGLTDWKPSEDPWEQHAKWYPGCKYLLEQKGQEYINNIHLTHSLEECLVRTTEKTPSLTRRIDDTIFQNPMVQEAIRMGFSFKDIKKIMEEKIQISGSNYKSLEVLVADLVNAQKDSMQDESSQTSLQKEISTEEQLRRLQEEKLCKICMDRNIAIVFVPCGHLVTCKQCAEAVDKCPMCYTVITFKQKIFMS
Sequence of Genome polyprotein (P29990 2492-3391 limits assumed): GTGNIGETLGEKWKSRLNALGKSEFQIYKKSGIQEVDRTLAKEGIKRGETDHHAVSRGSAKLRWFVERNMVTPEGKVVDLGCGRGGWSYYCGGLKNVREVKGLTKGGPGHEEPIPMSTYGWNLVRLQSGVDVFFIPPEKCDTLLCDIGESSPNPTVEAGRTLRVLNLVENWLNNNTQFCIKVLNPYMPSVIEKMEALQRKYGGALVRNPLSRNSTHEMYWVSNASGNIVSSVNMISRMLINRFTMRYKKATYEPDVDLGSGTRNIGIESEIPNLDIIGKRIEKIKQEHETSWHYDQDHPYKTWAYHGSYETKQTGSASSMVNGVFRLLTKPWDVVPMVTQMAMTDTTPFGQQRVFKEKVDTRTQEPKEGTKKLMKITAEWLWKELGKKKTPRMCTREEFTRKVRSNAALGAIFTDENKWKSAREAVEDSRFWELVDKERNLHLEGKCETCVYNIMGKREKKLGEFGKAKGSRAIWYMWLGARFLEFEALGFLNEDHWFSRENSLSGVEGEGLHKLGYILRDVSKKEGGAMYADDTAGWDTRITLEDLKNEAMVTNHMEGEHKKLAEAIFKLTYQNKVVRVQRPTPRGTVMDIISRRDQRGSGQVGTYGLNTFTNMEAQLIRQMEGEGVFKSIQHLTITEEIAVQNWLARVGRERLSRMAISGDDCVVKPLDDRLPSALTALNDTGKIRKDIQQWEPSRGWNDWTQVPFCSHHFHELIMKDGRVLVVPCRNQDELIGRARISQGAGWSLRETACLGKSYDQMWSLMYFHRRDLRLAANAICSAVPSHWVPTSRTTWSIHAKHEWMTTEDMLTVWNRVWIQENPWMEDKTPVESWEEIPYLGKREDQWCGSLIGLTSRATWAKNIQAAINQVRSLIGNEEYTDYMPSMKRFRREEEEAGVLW
T7 sequence (Q9UBE0 whole entry): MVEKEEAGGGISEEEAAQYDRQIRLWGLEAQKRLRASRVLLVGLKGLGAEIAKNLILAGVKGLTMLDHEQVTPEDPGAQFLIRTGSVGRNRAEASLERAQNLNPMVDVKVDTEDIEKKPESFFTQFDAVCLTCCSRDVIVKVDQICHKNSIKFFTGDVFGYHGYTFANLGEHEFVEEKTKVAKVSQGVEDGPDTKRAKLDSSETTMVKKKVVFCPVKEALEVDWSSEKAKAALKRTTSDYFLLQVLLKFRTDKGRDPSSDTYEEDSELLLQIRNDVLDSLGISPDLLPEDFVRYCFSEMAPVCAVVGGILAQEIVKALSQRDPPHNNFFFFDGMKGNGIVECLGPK
T7 sequence (Q9UBT2 whole entry): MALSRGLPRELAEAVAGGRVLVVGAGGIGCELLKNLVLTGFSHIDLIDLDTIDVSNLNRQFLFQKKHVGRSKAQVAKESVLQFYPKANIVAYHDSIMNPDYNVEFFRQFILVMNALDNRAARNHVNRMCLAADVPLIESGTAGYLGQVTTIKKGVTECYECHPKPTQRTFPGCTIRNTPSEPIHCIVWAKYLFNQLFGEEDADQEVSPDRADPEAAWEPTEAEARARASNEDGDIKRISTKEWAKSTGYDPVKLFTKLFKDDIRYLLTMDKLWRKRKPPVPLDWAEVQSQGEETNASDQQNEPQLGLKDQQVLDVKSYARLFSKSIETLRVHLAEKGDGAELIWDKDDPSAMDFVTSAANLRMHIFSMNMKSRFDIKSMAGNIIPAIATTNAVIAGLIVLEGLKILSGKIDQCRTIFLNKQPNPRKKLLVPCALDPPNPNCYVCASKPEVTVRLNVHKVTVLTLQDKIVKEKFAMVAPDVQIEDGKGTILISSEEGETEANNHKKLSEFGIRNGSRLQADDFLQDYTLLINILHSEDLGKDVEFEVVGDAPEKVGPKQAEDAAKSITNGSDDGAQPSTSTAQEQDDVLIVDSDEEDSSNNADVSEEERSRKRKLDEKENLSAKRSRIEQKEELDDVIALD
Sequence of Glucose-6-phosphate 1-dehydrogenase (P11413 whole entry): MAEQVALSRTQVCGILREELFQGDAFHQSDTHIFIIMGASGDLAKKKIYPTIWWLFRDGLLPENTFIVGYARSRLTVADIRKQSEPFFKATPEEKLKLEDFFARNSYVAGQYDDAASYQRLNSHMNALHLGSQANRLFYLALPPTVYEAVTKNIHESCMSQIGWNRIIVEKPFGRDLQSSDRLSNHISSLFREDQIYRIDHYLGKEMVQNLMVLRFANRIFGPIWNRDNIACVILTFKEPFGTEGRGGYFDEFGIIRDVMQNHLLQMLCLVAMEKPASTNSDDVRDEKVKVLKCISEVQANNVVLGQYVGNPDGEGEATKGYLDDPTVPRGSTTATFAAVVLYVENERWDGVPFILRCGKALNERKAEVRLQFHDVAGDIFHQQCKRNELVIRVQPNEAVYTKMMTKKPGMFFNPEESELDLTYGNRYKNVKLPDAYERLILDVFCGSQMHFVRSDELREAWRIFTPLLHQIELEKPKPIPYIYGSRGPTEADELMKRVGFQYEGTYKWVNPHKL
Sequence of Large T antigen (P03070 whole entry): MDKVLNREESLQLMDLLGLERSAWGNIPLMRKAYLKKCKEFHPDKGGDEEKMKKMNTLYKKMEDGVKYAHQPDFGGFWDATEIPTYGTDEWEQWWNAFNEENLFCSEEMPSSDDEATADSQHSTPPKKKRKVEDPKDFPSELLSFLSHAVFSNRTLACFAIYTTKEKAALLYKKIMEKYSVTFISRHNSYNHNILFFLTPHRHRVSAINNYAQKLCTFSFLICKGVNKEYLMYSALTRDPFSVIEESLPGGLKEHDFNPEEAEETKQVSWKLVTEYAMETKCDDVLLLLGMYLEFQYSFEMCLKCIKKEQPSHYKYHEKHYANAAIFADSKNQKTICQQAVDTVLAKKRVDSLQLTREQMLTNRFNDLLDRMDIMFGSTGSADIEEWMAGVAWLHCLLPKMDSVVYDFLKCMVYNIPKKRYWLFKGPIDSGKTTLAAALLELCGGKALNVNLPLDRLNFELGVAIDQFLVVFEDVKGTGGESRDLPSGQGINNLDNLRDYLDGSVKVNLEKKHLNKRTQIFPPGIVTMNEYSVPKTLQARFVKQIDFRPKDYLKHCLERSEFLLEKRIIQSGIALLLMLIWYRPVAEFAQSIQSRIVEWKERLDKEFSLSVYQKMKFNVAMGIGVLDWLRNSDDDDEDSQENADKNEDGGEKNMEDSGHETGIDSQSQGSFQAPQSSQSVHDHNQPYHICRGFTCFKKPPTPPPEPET

For `CCCCCCCCSC1=CC(=O)C(OC)=C(OC)C1=O`, the IC50 [1] was 48.1 µM (inactive), the CC50 (Vero) was > 40 µM (active) and the IC50 (Genome polyprotein) was 12.5 µM (active). For the same compound, the AC50 [2] was 30.9 µM (active).
`CC(=O)c1ccc(NC2=c3ccccc3=NC2=O)cc1` was tested, and the EC50 (Beta-galactosidase) was > 40 µM (inactive), the IC50 [3] was 3.1 µM (active) and the EC50 [4] was > 260 µM (inactive).
For `O=C(O)CN1C(=O)/C(=C\C(Br)=C\c2ccccc2)SC1=S`, the IC50 (Large T antigen) was 53.4 µM (active) and the CC50 (Vero) was > 40 µM (active).
In the case of `O=C(O)CN1C(c2ccccc2O)Nc2ccc(Br)cc2C1c1ccccc1` (centres undefined), the IC50 [5] is reported as > 100 µM (inactive), the IC50 [6] is reported as > 100 µM (not active) and the EC50 [7] is reported as 5.31 µM (active). The IC50 [8] was 28.6 µM (active) and the EC50 [9] was > 53 µM (inactive).
With `CCc1ccc(NC(=O)NNC(=O)c2cc3ccccc3cc2O)cc1` the IC50 (SUMO-activating enzyme [10]) was 37.2 µM (active) and the IC50 (SUMO-activating enzyme [11]) was 11.6 µM (active).
In the case of `CC1CCCCN1C(=O)CSc1nc2cc3c(cc2c(=O)n1Cc1ccc2c(c1)OCO2)OCO3` (centres undefined), the EC50 [12] is reported as > 50 µM (not active), the EC50 (Beta-galactosidase) is reported as > 40 µM (inactive) and the IC50 [3] is reported as > 40 µM (not active).
With `O=S(=O)(Nc1nc2ccccc2nc1NCc1ccco1)c1ccc(Cl)cc1` the CC50 (Vero) was > 40 µM (active) and the IC50 (Genome polyprotein) was 91.9 µM (active).
`CCc1ccc(C(=O)NNc2ccc(Cl)cc2)cc1` was tested, and the EC50 (Beta-galactosidase) was > 40 µM (inactive) and the IC50 [3] was 6.08 µM (active).
`NC(=O)CC(NC(=O)Cc1cccc2ccccc12)c1ccc(NCCCN2CCCC2=O)c([N+](=O)[O-])c1` (centres undefined) was tested, and the EC50 [13] was 0.801 µM (active).
